According to US20110313156A1 (BOEHRINGER INGELHEIM INTERNATIONAL GMBH, priority 2008, published 2011):

How the values were obtained:
[1] = target: T1, ΔPH-PDK1 (aa 51-359; Q66A mutation) (Homo sapiens, UniProt O15530, Q66A); assay: PDK1 kinase assay II (shortened enzyme); format: biochemical; conditions: compound at 10 μM, one asterisk: incubation for 24 h, read-out: % CTL (residual activity of the enzyme relative to DMSO control)
T1 construct: a shortened PDK1 enzyme (aa 51-359; Q66A mutation) is used; His6 (N, cleaved yes)
T1 sequence (O15530 51-359 Q66A): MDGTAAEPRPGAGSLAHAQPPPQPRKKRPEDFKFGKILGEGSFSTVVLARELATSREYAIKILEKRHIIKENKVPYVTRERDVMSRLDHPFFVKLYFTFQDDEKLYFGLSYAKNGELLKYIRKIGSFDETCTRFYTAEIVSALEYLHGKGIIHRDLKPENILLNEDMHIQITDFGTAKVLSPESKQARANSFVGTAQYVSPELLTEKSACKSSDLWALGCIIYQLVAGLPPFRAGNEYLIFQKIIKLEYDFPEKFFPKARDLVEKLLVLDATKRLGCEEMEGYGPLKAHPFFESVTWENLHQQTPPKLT
Protocol: Another assay was developed in which a shortened PDK1 enzyme (aa 51-359; Q66A mutation) is used that carries in the N-terminal position a His6 tag that is cleaved during purification. (ΔPH-PDK1).
The following components are combined in a well of a 96-well round-based dish (Messrs. Greiner bio-one, No. 650101): • 15 μL of compound to be tested in varying concentrations (e.g. Starting at 10 μM, and diluted in steps of 1:5) in 3.33% DMSO (final concentration 1% DMSO)/assay buffer (50 mM Tris pH 7.5, 0.05% β-mercaptoethanol, 10 mM Mg-acetate) • 15 μL (ΔPH-PDK1; 12 ng/well) and PDKtide ([…]-QEMFRDFDYIADWC) synthesised by Pepceuticals Limited, Nottingham, United Kingdom; 25 μM final concentration); (ΔPH-PDK1 and PDKtide are together diluted accordingly in assay buffer; PDKtide is present in this mixture as an 83.3 μM solution. These 30 […] are incubated for 24 h at RT before ATP solution is added. • 20 μL ATP solution (25 μM ATP with 1.0 μCi/well gamma-P33-ATP)
The reaction is started by adding the ATP solution and the mixture is incubated for 120 min at ambient temperature; at the start of the reaction the dishes are shaken gently. The reaction is stopped by the addition of 50 μL/well of 500 mM phosphoric acid (H3PO4) and incubated for about 20 min at ambient temperature. The precipitate is transferred by harvesting onto filter plates (96-well microtitre filter plate: UniFilter GF/C; Messrs Perkin Elmer; No. 6005174), then washed 6 times with 50 mM H3PO4 and dried at 60° C. Then the plate is stuck down with sealing tape, 25 μL/well of scintillation solution (Microscint 0; Messrs. Perkin Elmer; No. 6013611) are added and the amount of P33 precipitated is measured using the Wallac Betacounter. The measured data are evaluated using Graphpad Prism software.
The % CTL values indicate the residual activity of the enzyme after the addition of the inhibitory compound in the solvent DMSO in relation to the enzyme activity in the solvent DMSO without the addition of a compound (control). The majority of the values were determined using the PDK1 kinase assay III described hereinbefore. The values marked with an asterisk (* or**) were determined using the PDK1 kinase assay II described hereinbefore (one asterisk→incubation for 24 h; two asterisks→incubation for 5 min)

His6-PDK1 (aa 52-556) = target: T2, His6-PDK1 (aa 52-556) (Homo sapiens, UniProt O15530); assay: PDK1 kinase assay III (with Tween 20); format: biochemical; conditions: compound at 10 μM; PDK1 kinase assay III (values without asterisk); read-out: % CTL (residual activity of the enzyme relative to DMSO control)
T2 construct: 15 μL His6-PDK1 (aa 52-556) 3.33 ng/well); host or cells: baculovirus-infected insect cells
T2 sequence (O15530 52-556): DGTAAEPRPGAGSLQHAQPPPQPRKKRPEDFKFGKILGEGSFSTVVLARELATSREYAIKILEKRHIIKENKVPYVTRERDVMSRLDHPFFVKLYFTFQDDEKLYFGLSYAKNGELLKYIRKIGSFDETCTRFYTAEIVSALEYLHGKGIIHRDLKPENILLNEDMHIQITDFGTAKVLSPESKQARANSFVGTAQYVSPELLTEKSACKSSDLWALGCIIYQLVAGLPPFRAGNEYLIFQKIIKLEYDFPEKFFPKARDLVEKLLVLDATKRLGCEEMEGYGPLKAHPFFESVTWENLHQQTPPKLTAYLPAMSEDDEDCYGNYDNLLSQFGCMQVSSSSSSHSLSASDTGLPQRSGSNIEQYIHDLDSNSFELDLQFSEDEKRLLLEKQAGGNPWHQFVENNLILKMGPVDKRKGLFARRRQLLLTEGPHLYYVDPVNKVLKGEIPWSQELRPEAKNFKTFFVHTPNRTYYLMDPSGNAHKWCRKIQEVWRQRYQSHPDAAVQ
Outline: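 Started with ATP, incubated 90 min at ambient temperature, then stopped with phosphoric acid. Asterisked values come from assay II (24 h or 5 min incubation).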

Structure (SMILES)	remaining activity at 10 µM [1] [%]	remaining activity at 10 µM (His6-PDK1 (aa 52-556)) [%]
CN(C)Cc1c[nH]c(/C=C2\C(=O)Nc3cc(/C=C/CNC(=O)c4cncn(Cc5ccc(F)c(F)c5)c4=O)ccc32)c1 [I-15, 1-(3,4-difluorobenzyl)-N-{(2E)-3-[(3Z)-3-({4-[(dimethylamino)methyl]-1H-pyrrol-2-yl}methylidene)-2-oxo-2,3-dihydro-1H-indol-6-yl]prop-2-en-1-yl}-6-oxo-1,6-dihydropyrimidine-5-carboxamide]	15.7	
Cc1c(C(=O)NCC#Cc2ccc3nc(Nc4ccc(C(=O)NCCO)cc4)ncc3c2)c(=O)n(Cc2ccc(F)c(F)c2)n1C	12.1	
Cc1c(C(=O)NC/C=C/c2cc(OC3CCNCC3)c3nc(Nc4ccc(N5CCOCC5)cc4)ncc3c2)c(=O)n(Cc2ccc(F)c(F)c2)n1C	8.9	
Cc1ncc(C(=O)NC/C=C/c2ccc3nc(Nc4ccc(N(C)C5CCN(C)CC5)cc4)ncc3c2)c(=O)n1Cc1ccc(F)c(F)c1	5.8	
C/C(=C\c1ccc2c(c1)NC(=O)/C2=C\c1cnc[nH]1)CNC(=O)c1cncn(Cc2ccc(F)c(F)c2)c1=O [I-45, 1-(3,4-difluorobenzyl)-N-{(2E)-3-[(3Z)-3-(1H-imidazol-5-ylmethylidene)-2-oxo-2,3-dihydro-1H-indol-6-yl]-2-methylprop-2-en-1-yl}-6-oxo-1,6-dihydropyrimidine-5-carboxamide]	7.9	
Cc1nc[nH]c1/C=C1\C(=O)Nc2cc(/C=C/CNC(=O)c3c(C)n(C)n(Cc4ccc(F)c(F)c4)c3=O)ccc21 [I-18, 2-(3,4-difluorobenzyl)-1,5-dimethyl-N-[(2E)-3-{(3Z)-3-[(4-methyl-1H-imidazol-5-yl)methylidene]-2-oxo-2,3-dihydro-1H-indol-6-yl}prop-2-en-1-yl]-3-oxo-2,3-dihydro-1H-pyrazole-4-carboxamide]	6.6	
COCCNC(=O)c1ccc(Nc2ncc3cc(C#CCNC(=O)c4c(C)n(C)n(Cc5ccc(F)c(F)c5)c4=O)ccc3n2)cc1		20.1
Cc1c(C(=O)NCC#Cc2cc(OC3CCNCC3)c3nc(Nc4ccc(N5CCOCC5)cc4)ncc3c2)c(=O)n(Cc2ccc(F)c(F)c2)n1C		12.3
O=C1Nc2cc(/C=C/CNC(=O)c3cc(Cl)nn(Cc4ccc(F)c(F)c4)c3=O)ccc2/C1=C/c1ccc[nH]1 [I-34, 6-chloro-2-(3,4-difluorobenzyl)-3-oxo-N-{(2E)-3-[(3Z)-2-oxo-3-(1H-pyrrol-2-ylmethylidene)-2,3-dihydro-1H-indol-6-yl]prop-2-en-1-yl}-2,3-dihydropyridazine-4-carboxamide]		21.4
O=C1Nc2cc(/C=C/CNC(=O)c3cncn(Cc4ccc(F)c(F)c4)c3=O)ccc2/C1=C/c1ccc[nH]1 [I-1, 1-(3,4-difluorobenzyl)-6-oxo-N-{(2E)-3-[(3Z)-2-oxo-3-(1H-pyrrol-2-ylmethylidene)-2,3-dihydro-1H-indol-6-yl]prop-2-en-1-yl}-1,6-dihydropyrimidine-5-carboxamide]		18.1
Cc1c[nH]c(/C=C2\C(=O)Nc3cc(/C=C/CNC(=O)c4c(C)n(C)n(Cc5ccc(F)c(F)c5)c4=O)ccc32)n1 [I-42, 2-(3,4-difluorobenzyl)-1,5-dimethyl-N-[(2E)-3-{(3Z)-3-[(4-methyl-1H-imidazol-2-yl)methylidene]-2-oxo-2,3-dihydro-1H-indol-6-yl}prop-2-en-1-yl]-3-oxo-2,3-dihydro-1H-pyrazole-4-carboxamide]		15.7

The next lines start with the values.

remaining activity at 10 µM [1] [%]	remaining activity at 10 µM (His6-PDK1 (aa 52-556)) [%]	Structure (SMILES)
16.6		CC(=O)Nc1ccc(Nc2ncc3cc(/C=C/CNC(=O)c4cncn(Cc5ccc(F)c(F)c5)c4=O)ccc3n2)cc1 [IV-47, N-[(2E)-3-(2-{[4-(acetylamino)phenyl]amino}quinazolin-6-yl)prop-2-en-1-yl]-1-(3,4-difluorobenzyl)-6-oxo-1,6-dihydropyrimidine-5-carboxamide]
13.8		Cc1c(C#CCNC(=O)c2c(C)n(C)n(Cc3ccc(F)c(F)c3)c2=O)c(=O)n(C(C)C)c2nc(Nc3ccc(N4CCOCC4)cc3)ncc12 [III-28, 2-(3,4-difluorobenzyl)-1,5-dimethyl-N-{3-[5-methyl-2-{[4-(morpholin-4-yl)phenyl]amino}-7-oxo-8-(propane-2-yl)-7,8-dihydropyrido[2,3-d]pyrimidin-6-yl]prop-2-yn-1-yl}-3-oxo-2,3-dihydro-1H-pyrazole-4-carboxamide]
9.1		Cc1c(C(=O)NCC#Cc2cc3cnc(Nc4ccccc4)nc3n(C)c2=O)c(=O)n(Cc2ccc(F)c(F)c2)n1C [III-23, 2-(3,4-difluorobenzyl)-1,5-dimethyl-N-{3-[8-methyl-7-oxo-2-(phenylamino)-7,8-dihydropyrido[2,3-d]pyrimidin-6-yl]prop-2-yn-1-yl}-3-oxo-2,3-dihydro-1H-pyrazole-4-carboxamide]
67.3		CN1CCN(c2ccc(Nc3ncc4cc(/C=C/CNC(=O)c5cncn(Cc6ccc(F)c(F)c6)c5=O)ccc4n3)cc2)CC1 [IV-4, 1-(3,4-difluorobenzyl)-N-[(2E)-3-(2-{[4-(4-methylpiperazin-1-yl)phenyl]-amino}quinazolin-6-yl)prop-2-en-1-yl]-6-oxo-1,6-dihydropyrimidine-5-carboxamide]
27.9		C/C(=C\c1ccc2nc(Nc3ccc(CN(C)C)cc3)ncc2c1)CNC(=O)c1cncn(Cc2ccc(F)c(F)c2)c1=O [IV-28, 1-(3,4-difluorobenzyl)-N-{(2E)-3-[2-({4-[(dimethylamino)methyl]phenyl}amino)-quinazolin-6-yl]-2-methylprop-2-en-1-yl}-6-oxo-1,6-dihydropyrimidine-5-carboxamide]
25.4		CN1CCC(N(C)c2ccc(Nc3ncc4cc(/C=C/CNC(=O)c5cc(Cl)nn(Cc6ccc(F)c(F)c6)c5=O)ccc4n3)cc2)CC1 [IV-40, 6-chloro-2-(3,4-difluorobenzyl)-N-{3-[2-({4-[methyl(1-methylpiperidin-4-yl)amino]phenyl}amino)quinazolin-6-yl]prop-2-en-1-yl}-3-oxo-2,3-dihydropyridazine-4-carboxamide]
6.5		CN1CCC(Nc2ccc(Nc3ncc4cc(C#CCNC(=O)c5cncn(Cc6ccc(F)c(F)c6)c5=O)ccc4n3)cc2F)CC1 [III-31, 1-(3,4-difluorobenzyl)-N-{3-[2-({3-fluoro-4-[(1-methylpiperidin-4-yl)amino]-phenyl}amino)quinazolin-6-yl]prop-2-yn-1-yl}-6-oxo-1,6-dihydropyrimidine-5-carboxamide]
	30.4	N#Cc1ccc(Nc2ncc3cc(C#CCNC(=O)c4cncn(Cc5ccc(F)c(F)c5)c4=O)ccc3n2)cc1 [III-44, N-(3-{2-[(4-cyanophenyl)amino]quinazolin-6-yl}prop-2-yn-1-yl)-1-(3,4-difluorobenzyl)-6-oxo-1,6-dihydropyrimidine-5-carboxamide]
